The values that follow come from US8435978B2, “Substituted sulfonamide compounds” (Gruenenthal GmbH, priority 2006, dated 2013).

Structures can show the parent of a compound that is named as a salt.

One test has as its target T1, human B1R receptor (Homo sapiens, UniProt P46663).
T1 construct: host or cells: CHO K1 cells (Chinese hamster ovary), stably transfected
T1 sequence (P46663 1-353): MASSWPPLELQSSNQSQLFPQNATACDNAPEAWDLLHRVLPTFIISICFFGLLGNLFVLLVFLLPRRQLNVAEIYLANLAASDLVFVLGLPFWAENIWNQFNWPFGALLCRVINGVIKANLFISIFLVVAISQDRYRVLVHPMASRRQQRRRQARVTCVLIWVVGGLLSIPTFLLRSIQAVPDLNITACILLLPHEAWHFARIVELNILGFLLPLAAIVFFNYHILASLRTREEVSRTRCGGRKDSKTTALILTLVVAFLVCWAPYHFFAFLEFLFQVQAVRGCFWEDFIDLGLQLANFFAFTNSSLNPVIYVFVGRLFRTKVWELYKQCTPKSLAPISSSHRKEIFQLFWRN
In words: Functional study on the bradykinin receptor 1 (B1R), FLIPR Ca2+ assay, hB1R cells. The test is classed as cell-based. The note with it: agonist Lys-Des-Arg9-bradykinin 0.5 nM, % inhibition compared with the maximum achievable inhibition; for inhibition at 10 µM: CHO-K1, test substance 10 μM, read-out: B1R Antagonism, human [10 μM] % Inhibition; for B1R Antagonism, human [10 μM] % Inhibition: test substance 10 μM, hB1R CHO K1 cells. In short, it runs like this:
(§1)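 Cells were dye-loaded 60 min at 37 °C, equilibrated 20 min at room temperature, then given 10 μM compound. Ten minutes later the species-matched agonist was added (0.5 nM Lys-Des-Arg9-bradykinin, human; 100 nM Des-Arg9-bradykinin, rat) and Ca2+ influx suppression expressed as % of maximum inhibition.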

The target of another test is T2, B1R receptor of the rat (Rattus norvegicus, UniProt P97583).
T2 construct: host or cells: CHO K1 cells (Chinese hamster ovary), stably transfected
T2 sequence (P97583 1-337): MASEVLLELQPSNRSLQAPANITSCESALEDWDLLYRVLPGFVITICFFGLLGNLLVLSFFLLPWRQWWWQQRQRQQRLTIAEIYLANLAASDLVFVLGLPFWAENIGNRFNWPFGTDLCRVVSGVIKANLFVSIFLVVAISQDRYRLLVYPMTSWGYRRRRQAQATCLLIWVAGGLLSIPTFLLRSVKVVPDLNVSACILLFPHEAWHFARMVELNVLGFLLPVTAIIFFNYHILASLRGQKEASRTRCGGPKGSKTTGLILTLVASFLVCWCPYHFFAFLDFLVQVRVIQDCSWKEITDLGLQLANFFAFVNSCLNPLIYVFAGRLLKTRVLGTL
As to the kind of experiment: Functional study on the bradykinin receptor 1 (B1R), FLIPR Ca2+ assay, rB1R cells. The test is classed as cell-based. The note with it: agonist Des-Arg9-bradykinin 100 nM, % inhibition compared with the maximum achievable inhibition; for inhibition at 10 µM: CHO-K1, test substance 10 μM, read-out: B1R Antagonism, rat [10 μM] % Inhibition; for B1R Antagonism, rat [10 μM] % Inhibition: test substance 10 μM, rB1R CHO K1 cells. In a few lines:
as §1

By inhibition is commonly meant the drop in the measured response relative to a control, in per cent. On to `CCN(Cc1ccncc1)C(=O)COCC1CCCN1S(=O)(=O)c1c(C)cc(OC)cc1C` (centres unmarked) [Example 466, N-ethyl-2-((1-(4-methoxy-2,6-dimethylphenylsulfonyl)pyrrolidin-2-yl)methoxy)-N-(pyridin-4-ylmethyl)acetamide], for which the inhibition at 10 µM on human B1R receptor is 92.5%; at B1R receptor of the rat, 99.7%.

Take `COc1ccc(S(=O)(=O)N2CCCCC2COCC(=O)N2CCN(C3CCN(C)CC3)CC2)c2ccccc12` (centres unmarked) [Example 174, 2-((1-(4-methoxynaphthalen-1-ylsulfonyl)piperidin-2-yl)methoxy)-1-(4-(1-methylpiperidin-4-yl)piperazin-1-yl)ethanone dihydrochloride]: the inhibition at 10 µM on human B1R receptor is 101%; on B1R receptor of the rat, 98%.

As to `O=C(COCC1CCCCN1S(=O)(=O)c1c(Cl)cccc1Cl)N1CCN(c2ccncc2)CC1` (centres unmarked) [Example 283, 2-((1-(2,6-dichlorophenylsulfonyl)piperidin-2-yl)methoxy)-1-(4-(pyridin-4-yl)piperazin-1-yl)ethanone], the figures for the inhibition at 10 µM on human B1R receptor and on B1R receptor of the rat were 103% and 92.9%, respectively.

Turning to `CN1CCC(N2CCN(C(=O)COCC3CCCCN3S(=O)(=O)c3ccc(Cl)c(Cl)c3)CC2)CC1` (centres unmarked) [Example 32, 2-[1-(3,4-dichloro-phenylsulfonyl)-piperidin-2-ylmethoxy]-1-[4-(1-methyl-piperidin-4-yl)-piperazin-1-yl]-ethanone], the inhibition at 10 µM at human B1R receptor was determined as 83.3%; on B1R receptor of the rat it was 63.3%.

As to `O=C(COCC1Cc2ccccc2N1S(=O)(=O)c1ccc(Cl)c(Cl)c1)NCc1ccc(CN2CCCC2)cc1` (centres unmarked) [Example 81, 2-[1-(3,4-dichloro-phenylsulfonyl)-2,3-dihydro-1H-indol-2-ylmethoxy]-N-(4-pyrrolidin-1-ylmethyl-benzyl)-acetamide], the inhibition at 10 µM at human B1R receptor worked out at 44.9%; at B1R receptor of the rat it was 34.1%.

Consider `COc1cc(C)c(S(=O)(=O)N2CCCCC2COCC(=O)N2CCN(Cc3ccc(Br)cc3)CC2)c(C)c1` (centres unmarked) [Example 382, 1-(4-(4-bromobenzyl)piperazin-1-yl)-2-((1-(4-methoxy-2,6-dimethylphenylsulfonyl)piperidin-2-yl)methoxy)ethanone], for which the results for the inhibition at 10 µM at human B1R receptor and on B1R receptor of the rat were 103% and 101%, respectively.

Consider `CCN1CCN(C(=O)COCC2CCCN2S(=O)(=O)c2c(Cl)cc(Cl)cc2Cl)CC1` (centres unmarked) [Example 295, 1-(4-ethylpiperazin-1-yl)-2-((1-(2,4,6-trichlorophenylsulfonyl)pyrrolidin-2-yl)methoxy)ethanone], for which the inhibition at 10 µM is 96.7% on human B1R receptor and 103% on B1R receptor of the rat.

As for `O=C(COCC1CCCCN1S(=O)(=O)c1c(Cl)cccc1Cl)N1CCN(c2ccccc2F)CC1` (centres unmarked) [Example 442, 2-((1-(2,6-dichlorophenylsulfonyl)piperidin-2-yl)methoxy)-1-(4-(2-fluorophenyl)piperazin-1-yl)ethanone], the inhibition at 10 µM is 102% at human B1R receptor and 98.6% on B1R receptor of the rat.

In the case of `COc1cc(C)c(S(=O)(=O)N2CCCCC2COCC(=O)Nc2ccc(CN3CCCCC3)cc2)c(C)c1` (centres unmarked) [Example 419, 2-((1-(4-methoxy-2,6-dimethylphenylsulfonyl)piperidin-2-yl)methoxy)-N-(4-(piperidin-1-ylmethyl)phenyl)acetamide], the inhibition at 10 µM was determined as 100% at human B1R receptor and 101% at B1R receptor of the rat.

On to `COc1cc(C)c(S(=O)(=O)N2CCCC2COCC(=O)NCc2ccccc2N2CCN(C)CC2)c(C)c1` (centres unmarked) [Example 473, 2-((1-(4-methoxy-2,6-dimethylphenylsulfonyl)pyrrolidin-2-yl)methoxy)-N-(2-(4-methylpiperazin-1-yl)benzyl)acetamide], for which the inhibition at 10 µM on human B1R receptor worked out at 94.6%; on B1R receptor of the rat, 99.5%.

Regarding `CN1CCN(Cc2ccc(CNC(=O)COCC3CCCN3S(=O)(=O)c3c(Cl)cc(Cl)cc3Cl)cc2)CC1` (centres unmarked) [Example 45, N-[4-(4-methyl-piperazin-1-ylmethyl)-benzyl]-2-[1-(2,4,6-trichloro-phenylsulfonyl)-pyrrolidin-2-ylmethoxy]-acetamide], the inhibition at 10 µM came out at 69.1% at human B1R receptor and 92.4% on B1R receptor of the rat.

As to `COc1cccc(N2CCN(C(=O)COCC3CCCCN3S(=O)(=O)c3ccc(Cl)c(Cl)c3)CC2)c1` (centres unmarked) [Example 53, 2-[1-(3,4-dichloro-phenylsulfonyl)-piperidin-2-ylmethoxy]-1-[4-(3-methoxy-phenyl)-piperazin-1-yl]-ethanone], the inhibition at 10 µM on human B1R receptor was determined as 64.8%; at B1R receptor of the rat, 0%.

For `CN1CCC(N2CCN(C(=O)COCC3Cc4ccccc4CN3S(=O)(=O)c3ccc4ccccc4c3)CC2)CC1` (centres unmarked) [Example 178, 1-(4-(1-methylpiperidin-4-yl)piperazin-1-yl)-2-((2-(naphthalen-2-ylsulfonyl)-1,2,3,4-tetrahydroisoquinolin-3-yl)methoxy)ethanone dihydrochloride], the inhibition at 10 µM at human B1R receptor was 102%; at B1R receptor of the rat, 99.8%.

Take `O=C(COCC1CCCCN1S(=O)(=O)c1cccc2ccccc12)NCc1ccc(CN2CCOCC2)cc1` (centres unmarked) [Example 61, N-(4-morpholin-4-ylmethyl-benzyl)-2-[1-(naphthyl-1-sulfonyl)-piperidin-2-ylmethoxy]-acetamide]: at human B1R receptor, the “B1R Antagonism, human [10 μM] % Inhibition” value was 59.7%. The “B1R Antagonism, rat [10 μM] % Inhibition” value at B1R receptor of the rat came to 30.54%.

On to `CN(CCC1CCC(N2CCCC2)CC1)C(=O)COCC1CCc2ccccc2N1S(=O)(=O)c1ccc(Cl)c(Cl)c1` (centres unmarked) [Example 216, 2-((1-(3,4-dichlorophenylsulfonyl)-1,2,3,4-tetrahydroquinolin-2-yl)methoxy)-N-methyl-N-(2-(4-(pyrrolidin-1-yl)cyclohexyl)ethyl)acetamide], for which the figures for the inhibition at 10 µM at human B1R receptor and at B1R receptor of the rat were -10.1% and 4.48%, respectively.

Take `O=C(COCC1CCCCN1S(=O)(=O)c1c(Cl)cc(Cl)cc1Cl)NCC(c1cccnc1)N1CCOCC1` (centres unmarked) [Example 256, N-(2-morpholino-2-(pyridin-3-yl)ethyl)-2-((1-(2,4,6-trichlorophenylsulfonyl)piperidin-2-yl)methoxy)acetamide]: the inhibition at 10 µM came out at 50.2% on human B1R receptor and 91% at B1R receptor of the rat.

Regarding `COc1cc(C)c(S(=O)(=O)N2CCCC2COCC(=O)NCC(c2ccc(C(F)(F)F)cc2)N(C)C)c(C)c1` (centres unmarked) [Example 495, N-(2-(dimethylamino)-2-(4-(trifluoromethyl)phenyl)ethyl)-2-((1-(4-methoxy-2,6-dimethylphenylsulfonyl)pyrrolidin-2-yl)methoxy)acetamide], the inhibition at 10 µM at human B1R receptor was 30.7%; at B1R receptor of the rat, 95.7%.

With `CN(C)CCCN1CCN(C(=O)COCC2CCCCN2S(=O)(=O)c2cccc(C(F)(F)F)c2)CC1` (centres unmarked) [Example 58, 1-[4-(3-dimethylamino-propyl)-piperazin-1-yl]-2-[1-(3-trifluoromethyl-phenylsulfonyl)-piperidin-2-ylmethoxy]-ethanone], the inhibition at 10 µM came out at 62.2% at human B1R receptor and 10.2% at B1R receptor of the rat.

As for `CN(C)C1CCN(C(=O)COCCC2CCCCN2S(=O)(=O)c2cccc3ccccc23)C1` (centres unmarked) [Example 66, 1-(3-dimethylamino-pyrrolidin-1-yl)-2-[1-(naphthyl-1-sulfonyl)-piperidin-2-ylethoxy]-ethanone], at human B1R receptor, the “B1R Antagonism, human [10 μM] % Inhibition” value amounted to 55.38%. Moreover, the “B1R Antagonism, rat [10 μM] % Inhibition” value on B1R receptor of the rat was determined as 38.64%.

As for `COc1cc(C)c(S(=O)(=O)N2CCCCC2COCC(=O)NCc2ccc(N(C)C)cc2)c(C)c1` (centres unmarked) [Example 577, N-(4-(dimethylamino)benzyl)-2-((1-(4-methoxy-2,6-dimethylphenylsulfonyl)piperidin-2-yl)methoxy)acetamide], the inhibition at 10 µM at human B1R receptor amounted to 17.3%; on B1R receptor of the rat, 107%.

Regarding `COc1cc(C)c(S(=O)(=O)N2CCCCC2COCC(=O)Nc2ccc(CCc3nc4ccccc4n3C)cc2)c(C)c1` (centres unmarked) [Example 417, 2-((1-(4-methoxy-2,6-dimethylphenylsulfonyl)piperidin-2-yl)methoxy)-N-(4-(2-(1-methyl-1H-benzo[d]imidazol-2-yl)ethyl)phenyl)acetamide], the inhibition at 10 µM turned out to be 96.2% on human B1R receptor and 103% on B1R receptor of the rat.

Take `CN1CCC(N2CCN(C(=O)COCC3CCCCN3S(=O)(=O)c3cc(Cl)sc3Cl)CC2)CC1` (centres unmarked) [Example 170, 2-((1-(2,5-dichlorothiophen-3-ylsulfonyl)piperidin-2-yl)methoxy)-1-(4-(1-methylpiperidin-4-yl)piperazin-1-yl)ethanone dihydrochloride]: the figures for the inhibition at 10 µM at human B1R receptor and at B1R receptor of the rat were 101% and 97.8%, respectively.
